Experimental findings from patent publication US20250090510A1, “eIF4G1-eIF1 INHIBITORS AND USE THEREOF” (YEDA RESEARCH AND DEVELOPMENT CO. LTD., priority 2022, published 2025) are described below.

This assay concerns HEK293T cells. As to the kind of experiment: TCP-seq (translation complex profiling) of 48S footprints. The class given is cell-based, human. As to conditions: 5 μM, one hour. An excerpt: FIGS. 9A-H: Inhibition of eIF1-eIF4G1 leads to 48S instability and scanning defect (9A) Polysome profiles of HEK293T cells treated with DMSO or i14G1-12 after crosslinking with formaldehyde, lysis and Rnase I digestion. The grey layer represents the fractions corresponding to the 40S ribosome used for the TCP-seq library preparation. (9B) Heatmap representing the log 2 mean of the relative number of reads mapping to the individual tRNAs in i14G1-12 over DMSO (n=3). The number of reads was normalized to the codon frequency in the human transcriptome. (9C) Volcano plot showing log 2 fold change (FC) of the abundance of each tRNAs comparing i14G1-12 over DMSO with FDR <0.05 and a log 2 FC threshold of 1. (9D) Histograms showing the relative number of reads mapping to mRNA in DMSO vs. i14G1-12. (9E) Metagene plots of normalized ribosome footprints (RPFs) counts on leader region. Numbers indicate the slope of the regression lines. (9F) Volcano plot showing log 2 fold change of the differential initiation analysis in i14G1-12 over DMSO. […] (9G) Bar chart of the relative number of reads mapping to each mRNA feature in DMSO and i14G-12.
FIGS. 10A-J: Definition of leaky scanning and its regulation by specific mRNA features and eIF1-eIF4G1. (10A) Metagene plots of normalized ribosome footprints (RPFs) counts on CDS region. (10B) Scatter plot representing the leaky scanning score (LS) of transcripts in i14G1-12 versus DMSO. Transcripts with a significant LS (FDR <0.05) in DMSO and i14G1-12 are highlighted. […] (10D) Boxplots of the leaky scanning score in DMSO and in i14G1-12. […] (10F) Plot of the mean GC content in a 20 nt window around the start codon of leaky and non-leaky transcripts in DMSO and i14G1-12. (10G) Boxplot representing the log 5′ UTR length of leaky and non-leaky transcripts in DMSO and i14G1-12.
HEK293T cells were grown to 90% confluence at 37° C. in a humidified incubator supplemented with 5% CO2. Cells were treated with DMSO or 5 μM i14G1-12 for 1 hour. After treatment, cells were directly removed from the incubator and treated with 0.15% formaldehyde for 10 min on ice with slow shaking. The reaction was stopped by adding 37.5 mM glycine for 5 minutes. Media was aspirated and the plates were washed with cold PBS. Cells were lysed with fresh lysis buffer (100 mM KCl, 20 mM Tris-HCl pH 8, 1.5 mM MgCl2, 1.5% (v/v) NP-40, 2 mM DTT) supplemented with protease inhibitor for 20 min in a cold room with slow agitation. Lysates were clarified by centrifugation at 20,000 g. RNA amount was quantified by nanodrop. 10% of the lysate was kept and snap freeze for total RNA extraction. Digestion was performed by the addition of 0.0075 U Rnase I per μg of RNA to the lysate for 30 min at room temperature. Digestion was stopped by adding a Super RNase inhibitor (ThermoFischer). Lysates were loaded onto a 5-45% sucrose gradient (100 mM KCl, 20 mM HEPES pH 7, 5 mM MgCl2, 2 mM DTT) and centrifuged at 39000 rpm for two hours and forty-five minutes in an SW41 rotor at 4° C. Gradients were analyzed through a UV lamp (254 nm) and an Absorbance detector while being fractionated in 250 μL fractions using a Foxy Junior Fraction Collector (Isco).
RNA from the undigested extract and the sucrose gradient fractions corresponding to the 40S were extracted by addition of 1 mL or one volume of TRIzol respectively. Samples were heated at 65° C. for 15 minutes and vortexed every five minutes. Extraction was continued by addition of chloroform and alcohol precipitation of the aqueous phase. RNA-seq libraries were prepared with the TruSeq stranded RNA Library Prep (Illumina). TCP-seq libraries were prepared as described herein by selecting footprints reads with a length ranging from 16 nt to 85 nt. Libraries were sequenced at the iGE3 Genomic Platform (UNIGE) on a Hiseq 4000. […]

As for `Cn1ccnc1S/C(=C/C=C(C#N)C#N)c1ccc(Cl)cc1` [i14G1-12], for the setting “relative to DMSO”, the “iMet tRNA abundance in 48S fractions” value is “most downregulated tRNA” and the “number of reads mapping to mRNAs” value is given as “significantly decreased”. The “number of leaky genes (LS >3)” value (DMSO n=637) was found to be 1266 genes. Also, for the setting “DMSO n=1223”, the “number of non-leaky genes (LS<−3)” value stood at 325 genes. Further, for the setting “log 2 FC threshold 1, FDR 0.05”, the “number of downregulated differentially scanned genes” value is on record as 476 genes and the “number of upregulated differentially scanned genes” value stood at 10 genes.
